From patent US5001133A, “Benzoic acid derivatives” (Sandoz Ltd., priority 1983, dated 1991)

Experiments:
5-HT M-receptors = conditions: slow i.v. injection of 10 mg; cited from earlier work
serotonin M receptor [1] = target: T1, serotonin M receptor (Oryctolagus cuniculus, UniProt A0A5F9C9J3); assay: inhibition of the effect of serotonin on the isolated rabbit heart; conditions: antagonism of serotonin, read-out: pA2 (converted)
T1 construct: isolated rabbit heart; from tissue; host or cells: isolated rabbit heart
T1 sequence (A0A5F9C9J3 1-494): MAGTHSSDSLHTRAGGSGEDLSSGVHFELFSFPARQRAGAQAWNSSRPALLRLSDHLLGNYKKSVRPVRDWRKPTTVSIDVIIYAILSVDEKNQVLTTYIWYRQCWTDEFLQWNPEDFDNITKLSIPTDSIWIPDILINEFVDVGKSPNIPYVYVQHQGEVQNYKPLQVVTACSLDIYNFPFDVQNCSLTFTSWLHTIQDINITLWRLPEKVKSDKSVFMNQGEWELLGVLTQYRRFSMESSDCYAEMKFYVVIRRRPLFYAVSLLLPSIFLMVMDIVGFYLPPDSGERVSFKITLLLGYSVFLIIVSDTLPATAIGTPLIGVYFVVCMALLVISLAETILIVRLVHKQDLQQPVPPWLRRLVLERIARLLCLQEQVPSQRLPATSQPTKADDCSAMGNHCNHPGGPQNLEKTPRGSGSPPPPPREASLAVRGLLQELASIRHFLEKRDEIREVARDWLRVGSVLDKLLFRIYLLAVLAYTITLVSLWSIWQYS
Source text: The serotonin M receptor antagonist activity is also indicated by inhibiting the effect of serotonin on the isolated rabbit heart according to the method of J.R.Fozard and A.T.Moborak Ali, European Journal of Pharmacology, (1978), 49, 109-112 at concentrations of 10^-11 to 10^-5 M of the compound of the invention. pD'2 or pA2 values may be calculated in the conventional manner.
The compounds of formula I may be administered in similar manner to known standards for use in these utilities. The suitable daily dosage for a particular compound will depend on a number of factors such as its relative potency of activity.

serotonin M receptor [2] = conditions: blister base, forearm of human volunteers; cited from earlier work
[3] = system: M receptors for serotonin; conditions: isolated rabbit vagus nerve; cited from earlier work

SMILES | block of the action of serotonin on C fibre action potential amplitude [3] | other results
CCN(CC)CCNC(=O)c1cc(Cl)c(N)cc1OC [Metoclopramide] |  | effect on a migraine attack (5-HT M-receptors): immediate beneficial effect
COC1CC2CC(OC(=O)c3c[nH]c4ccccc34)CC1N2C (stereo not drawn) [Example 2] |  | Kb (serotonin M receptor [1]): 0.01 nM
CCN(CC)C(=O)[C@@H]1C=C2c3cccc4[nH]cc(c34)C[C@H]2N(C)C1 [lysergic acid diethylamide] |  | inhibition of the algesic action of serotonin (serotonin M receptor [2]): not inhibited
CC[C@@H](CO)NC(=O)[C@@H]1C=C2c3cccc4c3c(cn4C)C[C@H]2N(C)C1 [methysergide] | not blocked | 
CCN(CC)C(=O)[C@@H]1C=C2c3cccc4[nH]c(Br)c(c34)C[C@H]2N(C)C1 [BOL--148] | not blocked | 
CSc1ccc2c(c1)C(N1CCN(C)CC1)Cc1ccccc1S2 (stereo not drawn) [metitepine] | not blocked | 
